# According to US12458614B2, “Therapeutic agents for improved mobility and cognitive function and for treating neurodegenerative diseases and lysosomal storage disorders” (priority 2017, dated 2025):
# Assays:
# [1] = system: Sandhoff disease model, Hexb−/− mouse; experiment: Step cycle time; format: in vivo; conditions: Sandhoff mice, 12 weeks of age
# Description: This study made use of a mouse model of Sandhoff disease, the Hexb^−/− mouse, as descrbed in Jeyakumar et al. (Jeyakumar, M. et al. (1999) Proc. Natl. Acad. Sci. USA 96: 6388-6393). Step cycle is the length of time taken during locomotion by a limb from the time it leaves the ground until it leaves the ground on the next occasion. Step cycle time was assessed at 12 weeks of age in untreated and acetyl-leucine treated Sandhoff model mice. Acetyl-leucine treatment constituted 0.1 g/kg body weight acetyl-leucine from 3 weeks of age.
# [2] = system: subjects with no apparent dysfunction in cognitive ability or movement/balance; experiment: Balancing ability (eyes closed, non-dominant foot lifted); format: in vivo, human
# Description: Due to reported improvement in balance on treatment we measured balancing ability at the end of the treatment period and at the end of the washout period. This assessment required the subject to close their eyes and lift their non-dominant foot around 6 inches off the ground. The subject was then timed to see how long they could remain upright and without significant wobbles. This was repeated three times, and the values averaged. […] This assessment required the subject to close their eyes and lift their non-dominant foot around 6 inches off the ground. The subject was then timed to see how long they could remain upright and without significant wobbles. This was repeated three times, and the values averaged. We measured balancing ability at the end of the treatment period and at the end of the washout period. This assessment required the subject to close their eyes and lift their non-dominant foot around 6 inches off the ground. The subject was then timed to see how long they could remain upright and without significant wobbles. This was repeated three times, and the values averaged.
# [3] = system: patients with progressive supranuclear palsy; experiment: Case studies, progressive supranuclear palsy; format: in vivo, human
# patients with vertigo = conditions: clinical results reported by various authors; cited from earlier work
# [4] = system: patient with frontotemporal dementia with parkinsonism; experiment: Case study, frontotemporal dementia with parkinsonism; format: in vivo, human
# Text: After approximately one month of acetyl-leucine treatment, medication was stopped and the patient was re-examined 13 days later.
# [5] = system: Sandhoff disease patient fibroblasts; experiment: Glycosphingolipid (GSL) levels via HPLC; format: cell-based, human; conditions: 1 mM for 6 days
# [6] = system: person with postural imbalance and cognitive decline; experiment: Case study Example 27; format: in vivo, human
# Description: The patient was examined clinically by means of the following clinical assessments: maximal distance to walk; timed Up and Go test; Scale for the Assessment and Rating of Ataxia (SARA). The patient was also examined by means of posturography after 1 month of the therapy with Tanganil® 500 mg (2 g upon waking, 1.5 g prior to lunch and 1.5 g prior to the evening meal). Medication was taken 30 minutes prior to the meal, or at least 2 hours after the meal. During treatment with Tanganil® (2 g upon waking, 1.5 g prior to lunch and 1.5 g prior to the evening meal) for 1-month, the following assessments were made: […]
# wild-type (Npc1+/+) mice = experiment: Motor function analysis (Open Field Activity Monitor); format: in vivo, mouse; conditions: nine weeks of age
# Description: (§1) Separate groups of Npc1^−/− and Npc1^+/+ mice were left untreated, as controls. Motor function analysis was performed on mice at eight and nine weeks of age using an Open Field Activity Monitor according to manufacturer's instructions (Linton Instruments, Amlogger Software). Each mouse was placed in a plastic cage with bedding and analysed for five minutes. Rears were counted manually. Motor function parameters measured were: • 1. Centre Rearing: mice rearing on hind legs unsupported; • 2. Rearing: mice rearing on hind legs with and without the support of cage walls; • 3. Activity: regular movement of the animal including walks; • 4. Front to Back (FR) count: movement of the animal from front to back of the cage; • 5. Active Time: duration (s/min) of activeness regardless of movement; • 6. Mobile Time: duration (s/min) of mobility; • 7. Rearing Time: duration of any rearing. Results Coat Condition
# Npc1−/− mice = experiment: as above; format: in vivo, mouse; conditions: nine weeks of age
# Description: as §1
# NPC patients = experiment: Clinical severity score (CSS) and annual severity increment score (ASIS) in ten NPC patients; format: in vivo, human; conditions: 4.5 g/day
# Text: An NPC patient's severity may be quantified by assigning a clinical severity score (CSS), which assesses various parameters of the disease and gives each parameter a score out of 5 (higher score=greater severity). See Yanjanin et al., “Linear Clinical Progression, Independent of Age of Onset, in Niemann-Pick Disease, Type C,” Am J Med Genet Part B 153B:132-140. In an untreated patient, one can typically predict how the CSS will change over time in an individual, as disease progression appears to be linear. For example, if Patient A moves from a CSS of 8 to a CSS of 12 between month 0 and month 12, it can be predicted that by month 36, the patient will have a CSS of 20. The annual severity increment score (ASIS) quantities the annual rate of change in the CSS, calculated by dividing the CSS of a patient by the patient's age. […]
# Ten NPC patients were administered acetyl-leucine at 4.5 g/day over long durations. A CSS was determined at baseline, and at various time points, for eye movement, ambulation, speech, swallow, fine motor skills, cognition, memory, and seizures. An overall CSS was calculated at baseline and at each such time point by adding the individual CSS values for each parameter (eye movement, ambulation, etc.).
# The ASIS at baseline and each time point was calculated using each patient's CSS and age at the time of assessment. […]
# [7] = system: Mucolipidosis Type II (MLII) patient fibroblasts; experiment: Lysosomal volume via LysoTracker; format: cell-based, human; conditions: 1 mM, 6 days
# [8] = system: Mucopolysaccharidosis Type IIIB (MPS IIIB) patient fibroblasts; experiment: Lysosomal volume via LysoTracker; format: cell-based, human; conditions: 1 mM, 6 days
smiles,measurement,setting,value
CC(=O)NC(CC(C)C)C(=O)O (racemic) [acetyl-DL-leucine],Average step cycle time,[1]; p<0.001 vs untreated,significantly faster average step cycle times
same,Hind step cycle time,[1]; p<0.01 vs untreated,significantly faster hind step cycle times
same,Front step cycle time,[1]; p<0.05 vs untreated,significantly faster front step cycle times
same,Time subject remained balanced,"[2]; person one, end of the washout period",8 s
same,Time subject remained balanced,"[2]; person one, last day of the treatment period",12 s
same,Time subject remained balanced,"[2]; person three, end of the washout period",4.01 s
same,Time subject remained balanced,"[2]; person three, last day of the treatment period",7.27 s
same,Time subject remained balanced,"[2]; person two, end of the washout period",3.1 s
same,Time subject remained balanced,"[2]; person two, last day of the treatment period",7.9 s
same,Symptoms after stopping medication,"[3]; PSP Patient 2, about two months later",no deterioration of symptoms after stopping medication
same,Symptoms after stopping medication,"[3]; PSP Patient 3, about two months later",no deterioration of symptoms after stopping medication
same,improvement in vertigo symptomology (share of cases),patients with vertigo,more than 95%
same,Symptoms after suspension of treatment,[4]; re-examined 13 days after stop,symptoms worsened
same,Falls,[4]; under therapy,falls stopped
same,Speech,[4]; under therapy,improvement of speech
same,Gait,"[4]; under therapy, 3 then 5 gram per day, about one month",significant improvement of gait
same,GSL levels,[5],trend towards decreased GSL levels
same,Subjective measurements,[6]; 1 month on medication,"more energy, was more agile and interactive"
same,SARA,"[6]; 1 month on medication, baseline 6.5/40",2/40
same,Mean timed 8-meter-walking test,"[6]; 1 month on medication, baseline 6.5 sec",4.4 s
same,Stance up-and-go test,"[6]; 1 month on medication, baseline 25.4 sec",21.2 s
same,Maximal distance to walk,"[6]; 1 month, 2 g/1.5 g/1.5 g per day, baseline 1 km",1.5 km
same,Side effects,[6]; 2 g/1.5 g/1.5 g per day dosage regimen,Sleepiness
same,Frequency of falls,[6]; lower dosage 1 g/1 g/1 g for over 4 months,0-1 /month
same,Falls,[6]; therapy period of 1 month,did not record any falls
same,Motor function properties vs untreated littermates,wild-type (Npc1+/+) mice,no significant difference in motor function properties
same,Motor function properties vs untreated littermates,Npc1−/− mice,significantly improved motor function
same,Change in ASIS during treatment relative to baseline,NPC patients,all ten patients showed a reduction in ASIS
same,Change in overall CSS over the course of the experiment,NPC patients,none of the ten patients showed an overall increase in CSS
same,LysoTracker fluorescence vs untreated disease fibroblasts,[7],statistically significant reduction in LysoTracker fluorescence toward control level
same,LysoTracker fluorescence vs untreated disease fibroblasts,[8],statistically significant reduction in LysoTracker fluorescence toward control level
